# Like-named read-outs stand apart in the source and are kept apart here.
# Columns and labels:
# CYP3A4 = CYP3A4 (Homo sapiens, UniProt P08684); conditions: known from the document cited; cited from earlier work
# S. epidermidis, 56500 = assay: antibacterial activity (MIC), standard method of Japanese Society of Chemotherapy; conditions: S. epidermidis
# [1] = tested on: S. pneumoniae, J24 (penicillin-intermediate resistant bacteria); assay: as above
# [2] = tested on: S. aureus, 87037 (LVFX-resistant MRSA); assay: as above; conditions: S. aureus, 87037 (LVFX-resistant MRSA)
# E. coli NIHJ = assay: as above; conditions: E. coli NIHJ
# P. vulgaris, 08601 = assay: as above; conditions: P. vulgaris
# P. aeruginosa, 32104 = assay: as above; conditions: P. aeruginosa
# [3] = tested on: bone marrow cells (polychromatic erythrocytes); assay: mouse bone marrow micronucleus test; assay type: in vivo, Slc:ddY male mice; conditions: in vivo
# Experimental: The control was 0.1 mol/l NaOH/physiological saline solvent, and the positive control was cyclophosphamide (cyclophoshamide, CP) dissolved and diluted in physiological saline. All samples were sterilized by filtering through Milex GS filter (0.22 μm). Each solution was intravenously administered at a dose of 10 mL/kg in single dose at an administration rate of 0.2 mL/min.
# Bone marrow cells were collected from thigh bone at 24 hours after the administration, and smear preparation was prepared. After staining with acridine orange, 1000 polychromatic erythrocytes per animal were observed under fluorescence microscope to count frequency of micrronucleated polychromatic erythrocyte and ratio of the orthochromatic erythrocytes to the polychromatic erythrocyte in 1000 erythrocytes.
# S. aureus, 209P = assay: antibacterial activity (MIC), standard method of Japanese Society of Chemotherapy
# [4] = rat, in vivo, po, 5 mg/kg
# Experimental: The Comparative compound was also evaluated by the same procedure.
# The test substance was orally administered to fasted rats (7 week old male Crj:CD IGS rats purchased from Charles River Laboratories Japan, Inc.) at a dose of 5 mg/kg.
# Animals of absorption test group (3 animals per group) were sacrificed by bleeding under etherization at 0.25, 0.5, 1, 2, 4, and 8 hours after the drug administration, and blood, lever, kidney, and lung were collected. The blood was centrifuged (3000 rpm×15 minutes, 4° C.) after coagulation to collect serum. Tissue was homogenized after adding 3 to 5 mL of 0.1 mol/l phosphate buffer (pH 7.0), and the supernatant was collected from the homogenate (3000 rpm×15 minutes, 4° C.).
# Animals of excretion test group (3 animals per group) were placed in a metabolic cage, and the urine of 0 to 4 hours and 4 to 24 hours after the administration was collected in a water-cooled container. Simultaneously with the collection of the urine, the cage was also washed with about 15 mL of 0.1 mol/l phosphate buffer (pH 7.0) to collect the urine attached to the cage. For evaluation of conjugates such as glucuronide, the collected sample was also aliquoted and hydrolyzed with an equal amount of 1 mol/l aqueous solution of sodium hydroxide, and the hydrolysate was neutralized with 0.5 mol/l hydrochloric acid and measured for its concentration. The concentration was measured by LC-MS/MS method.
# Pharmacokinetic parameters of the each drug in rat were calculated by from the time course of the average concentration by using pharmacokinetic analysis software PSAG-CP (AS Medica Inc.) in a manner not dependent on the model animal.
# [5] = assay type: in vivo; conditions: 30 minutes observation
# Experimental: The test substance was intracisternally administered to male Slc:ddy mice (6 animals per group), and the convulsion and death were monitored for each cage until 30 minutes after the administration. The test substance was dissolved in 5 μl of 1% aqueous solution of lactic acid, and the dose was 5, 15, or 50 μg per animal.
# hERG K+ channel = hERG K+ channel (Homo sapiens, UniProt Q12809)
# P. aeruginosa, 32121 = assay: antibacterial activity (MIC), standard method of Japanese Society of Chemotherapy; conditions: P. aeruginosa
# E. faecalis, ATCC 19433 = assay: as above; conditions: E. faecalis
# S. marscecens, 10100 = assay: as above
# 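Wherever Recovery (%) in urine in relation to the amount administered, 0-24 h is given: fasted 7-week-old rats, three per group, tissue sampled up to 8 h post-dose and urine collected over 0–24 h, with conjugates measured after alkaline hydrolysis, concentrations by LC-MS/MS.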
# 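Wherever Recovery (%) in urine in relation to the amount administered, Recovery (%) including conjugate is given: fasted 7-week-old rats, three per group, tissue sampled up to 8 h post-dose and urine collected over 0–24 h, with conjugates measured after alkaline hydrolysis, concentrations by LC-MS/MS.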
# 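Wherever Serum AUC0-8 h is given: fasted 7-week-old rats, three per group, tissue sampled up to 8 h post-dose and urine collected over 0–24 h, with conjugates measured after alkaline hydrolysis, concentrations by LC-MS/MS.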
# 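Wherever Serum Cmax (0.25 h) is given: fasted 7-week-old rats, three per group, tissue sampled up to 8 h post-dose and urine collected over 0–24 h, with conjugates measured after alkaline hydrolysis, concentrations by LC-MS/MS.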
# hERG K+ channel, sequence (Q12809 whole entry): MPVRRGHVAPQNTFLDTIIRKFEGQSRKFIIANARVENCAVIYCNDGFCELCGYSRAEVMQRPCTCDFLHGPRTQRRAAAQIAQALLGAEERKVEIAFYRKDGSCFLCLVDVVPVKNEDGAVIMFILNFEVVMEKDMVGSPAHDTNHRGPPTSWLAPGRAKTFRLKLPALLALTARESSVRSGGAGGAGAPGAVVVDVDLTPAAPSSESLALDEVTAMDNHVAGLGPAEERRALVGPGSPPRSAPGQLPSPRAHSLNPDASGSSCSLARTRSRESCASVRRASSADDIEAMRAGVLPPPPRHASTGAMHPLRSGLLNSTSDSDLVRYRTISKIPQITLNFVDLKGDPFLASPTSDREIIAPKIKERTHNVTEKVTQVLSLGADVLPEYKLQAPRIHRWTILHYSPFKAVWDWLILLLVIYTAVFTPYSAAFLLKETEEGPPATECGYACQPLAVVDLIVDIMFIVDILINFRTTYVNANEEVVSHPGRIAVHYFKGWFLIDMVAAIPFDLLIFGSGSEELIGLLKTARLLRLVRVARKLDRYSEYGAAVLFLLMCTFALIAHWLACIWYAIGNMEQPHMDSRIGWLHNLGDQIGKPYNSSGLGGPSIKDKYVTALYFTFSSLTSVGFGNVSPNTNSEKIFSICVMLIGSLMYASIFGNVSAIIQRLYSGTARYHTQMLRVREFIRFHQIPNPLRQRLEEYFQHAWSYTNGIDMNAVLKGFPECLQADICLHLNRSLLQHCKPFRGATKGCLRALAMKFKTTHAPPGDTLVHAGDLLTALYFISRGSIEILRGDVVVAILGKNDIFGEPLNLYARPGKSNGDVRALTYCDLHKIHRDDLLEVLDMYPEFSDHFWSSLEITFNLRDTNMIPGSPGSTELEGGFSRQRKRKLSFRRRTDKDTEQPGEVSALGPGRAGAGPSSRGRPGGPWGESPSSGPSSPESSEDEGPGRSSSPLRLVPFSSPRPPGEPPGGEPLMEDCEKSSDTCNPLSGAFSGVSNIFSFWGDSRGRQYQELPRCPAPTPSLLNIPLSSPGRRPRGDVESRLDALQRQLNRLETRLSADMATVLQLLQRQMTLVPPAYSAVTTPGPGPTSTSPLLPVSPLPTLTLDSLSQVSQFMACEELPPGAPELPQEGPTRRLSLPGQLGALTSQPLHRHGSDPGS
# CYP3A4, sequence (P08684 whole entry): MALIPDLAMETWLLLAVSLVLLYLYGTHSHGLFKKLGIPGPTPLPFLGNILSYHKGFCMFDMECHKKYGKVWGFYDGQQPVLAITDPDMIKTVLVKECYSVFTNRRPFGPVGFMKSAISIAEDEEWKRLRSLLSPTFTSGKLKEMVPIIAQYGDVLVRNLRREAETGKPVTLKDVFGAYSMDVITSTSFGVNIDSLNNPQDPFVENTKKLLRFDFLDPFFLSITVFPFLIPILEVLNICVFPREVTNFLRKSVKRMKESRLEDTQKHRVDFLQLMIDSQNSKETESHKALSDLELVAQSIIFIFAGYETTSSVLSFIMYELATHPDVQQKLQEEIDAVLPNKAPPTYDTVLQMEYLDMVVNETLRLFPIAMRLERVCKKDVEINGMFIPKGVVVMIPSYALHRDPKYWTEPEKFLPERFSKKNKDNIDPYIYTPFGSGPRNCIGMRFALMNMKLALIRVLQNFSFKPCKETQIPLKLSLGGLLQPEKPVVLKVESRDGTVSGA
smiles,measurement,setting,value
CC[C@H]1OC(=O)[C@H](C)[C@@H](O[C@H]2C[C@@](C)(OC)[C@@H](O)[C@H](C)O2)[C@H](C)[C@@H](O[C@@H]2O[C@H](C)C[C@H](N(C)C)[C@H]2O)[C@](C)(OC)C[C@@H](C)C(=O)[C@H](C)[C@@H](O)[C@]1(C)O [clarithromycin],MBI action for CYP3A4,CYP3A4,exhibit MBI action for CYP3A4
"COc1c(N2C[C@@H](C)[C@@](C)(N)C2)c(F)cc2c(=O)c(C(=O)O)cn([C@@H]3C[C@@H]3F)c12 (relative stereo) [Example 3, 7-[(3R*,4R*)-3-Amino-3,4-dimethylpyrrolidin-1-yl]-6-fluoro-1-[(1R,2S)-2-fluorocyclopropyl]-8-methoxy-1,4-dihydro-4-oxoguinoline-3-carboxylic acid]",MIC,"S. epidermidis, 56500",0.1 µg/mL
same,MIC,[1],0.1 µg/mL
same,MIC,[2],0.78 µg/mL
same,MIC,E. coli NIHJ,0.012 µg/mL
same,MIC,"P. vulgaris, 08601",0.05 µg/mL
same,MIC,"P. aeruginosa, 32104",0.39 µg/mL
same,"micronucleus induction rate versus control, evaluation result",[3],negative
same,MIC,"S. aureus, 209P",0.025 µg/mL
same,"Recovery (%) in urine in relation to the amount administered, 0-24 h",[4],24.5%
same,"Recovery (%) in urine in relation to the amount administered, Recovery (%) including conjugate",[4],24.7%
same,Serum AUC0-8 h,[4],1850 ng·h/mL
same,Serum Cmax (0.25 h),[4],1030 ng/mL
same,"Tissue AUC0-8 h, Kidney",[4],17100 ng·h/mL
same,"Tissue AUC0-8 h, Liver",[4],15400 ng·h/mL
same,"Tissue AUC0-8 h, Lung",[4],7380 ng·h/mL
same,"Tissue Cmax, Kidney",[4],8.83 µg/g
same,"Tissue Cmax, Liver",[4],9.02 µg/g
same,"Tissue Cmax, Lung",[4],3.47 µg/g
same,convulsant activity (animals affected / 6 animals per group),[5]; 5 μg/mouse intracisternal,0/6
same,convulsant activity (animals affected / 6 animals per group),[5]; 15 μg/mouse intracisternal,2/6
same,convulsant activity (animals affected / 6 animals per group),[5]; 50 μg/mouse intracisternal,6/6
same,"hERG-K^+ channel blocking effect, Inhibition (%)",hERG K+ channel; 30 µM,5.3 ± 4.1%
same,"hERG-K^+ channel blocking effect, Inhibition (%)",hERG K+ channel; 100 µM,12.0 ± 4.0%
same,"hERG-K^+ channel blocking effect, Inhibition (%)",hERG K+ channel; 300 µM,22.3 ± 0.7%
same,MIC,"P. aeruginosa, 32121",0.2 µg/mL
same,MIC,"E. faecalis, ATCC 19433",0.2 µg/mL
same,MIC,"S. marscecens, 10100",0.2 µg/mL

# From patent US7563805B2, “Tri-, tetra-substituted-3-aminopyrrolidine derivative” (Daiichi Pharmaceutical Co., Ltd., priority 2005, dated 2009)
